From patent US9751854B2 (Millennium Pharmaceuticals, Inc., priority 2014, dated 2017)

Columns and labels:
[1] = test system: PC9 cell line; assay: Cellular anti-proliferative assay of VPS34 inhibitors in combination with a second therapeutic agent (Cell Titer Glo, 72 hrs); assay type: cell-based, human
Experimental: (§1) Example 57: Cellular Assay for Anti-proliferative Activity of VPS34 Inhibitors in Combination with a Second Therapeutic Agent
(§2) Cells were plated in 25 μl of media in 384 well plates at 1,000 cells per well (A431, PC9, and […] cell lines), 1,500 cells per well (NCI-H1975) or 2,000 cells per well (NCI-H1650). The plates were incubated for 24 hrs at 37° C., 6% CO2. The test compounds (see Table 38 below) were diluted serially, and 62.5 nL of each compound solution (or DMSO, if it is a single agent experiment) is added so the total added to the cells is 125 nL. Cell plates were incubated for 72 hrs at 37° C., 6% CO2. Cell Titer Glo reagent (Promega) was added. The plates were then incubated for 10 minutes at room temperature before luminescence was read on a plate reader such as the Pherastar Plus, Pherastar FS, or LEADSeeker imaging system.
(§3) Bliss antagonism was defined similarly.
(§4) Bliss dependence was defined as the percent cell survival at a certain dose combination divided by the percent cell survival predicted by Bliss independence. More specifically, the Bliss dependence is vAB/(vA*vB), where vAB is the viability with drug A and drug B added, while vA and vB are the viabilities with each drug alone. The dose for the combination used in this study is the inflection point for each drug alone.
(§5) Another way to evaluate additivity is through consideration of Loewe additivity. A difference between Bliss independence and Loewe additivity evaluations of drug combination data is that Bliss independence evaluates whether two drugs interact at all (the null hypothesis is that the mechanisms are entirely independent) and Loewe additivity evaluates whether two drugs interact in an additive fashion (the null hypothesis is that the two drugs work by identical mechanisms). For Bliss independence, the boundary between additivity and synergy must be measured. For Loewe additivity, this boundary is assumed to be at a value of 1. Thus, Bliss independence provides a boundary between antagonism and synergy or additivity. Loewe additivity provides a boundary between synergy and independence or antagonism.
(§6) Synergy can also be measured by nonlinear blending synergy. Nonlinear blending synergy [Peterson, J. J. and Novik, S. J. J Recept Signal Transduct Res, 27, 12-146 (2007))] is found by considering the percent cell death values along the nonlinear blending plot. If the maximum cell death occurs between the endpoints, then the blending synergy is the difference between the maximum cell death for the combined drugs and the maximum cell death for the either drug alone.
(§7) A derivative of Loewe additivity is the Combination Index, I (see Chou T. C., Talalay P. Adv. Enzyme Reg., 22: 27-55 (1984) and Berenbaum M. C. J. Theor. Biol., 114:413-431 (1985)). This measure is based on the shape of the isobologram which represents 50% viability (for a review of the use of isobolograms in analysis of drug combinations, see Tallarida, R. J. J. Pharm. Exp. Therap. 319:1-7 (2006)).
(§8) The results in Table 38A were summarized by categorizing the Combination Index, I. A mean Combination Index in the range (0.7-1.3) is classified as Additivity. A mean in the range (0-0.7) is classified as Synergy. A mean in the range (1.3-2) is classified as Subadditivity. A mean greater than 2 is classified as Antagonism. […] In this case, the Nonlinear Blending Synergy is used instead to generate a call (Table 38B). The categorization is similar to the Combination Index. A Nonlinear Blending Synergy within the range (−20, 20) is classified as Additive. A value below −20 is classified as Antagonism, while a value above 20 is classified as Synergy.

[2] = test system: NCI-H1650 cell line; assay: as above; assay type: cell-based, human; details: NCI H-1650; for Blending Synergy: in combination with Erlotinib (Compound Y)
Experimental: as §1, §2, §3, §4, §5, §6, §7, §8

[3] = test system: NCI-H1975 cell line; assay: as above; assay type: cell-based, human
Experimental: as §1, §2, §3, §4, §5, §6, §7, §8

[4] = test system: A431 cell line; assay: as above; assay type: cell-based
Experimental: as §1, §2, §3, §4, §5, §6, §7, §8

[5] = target: human VPS34 (Homo sapiens (Human), UniProt Q8NEB9); assay: Human VPS34 enzyme assay (Adapta TR-FRET ADP detection); assay type: biochemical; details: IC50 range class
Chain of human VPS34 (Q8NEB9 whole entry): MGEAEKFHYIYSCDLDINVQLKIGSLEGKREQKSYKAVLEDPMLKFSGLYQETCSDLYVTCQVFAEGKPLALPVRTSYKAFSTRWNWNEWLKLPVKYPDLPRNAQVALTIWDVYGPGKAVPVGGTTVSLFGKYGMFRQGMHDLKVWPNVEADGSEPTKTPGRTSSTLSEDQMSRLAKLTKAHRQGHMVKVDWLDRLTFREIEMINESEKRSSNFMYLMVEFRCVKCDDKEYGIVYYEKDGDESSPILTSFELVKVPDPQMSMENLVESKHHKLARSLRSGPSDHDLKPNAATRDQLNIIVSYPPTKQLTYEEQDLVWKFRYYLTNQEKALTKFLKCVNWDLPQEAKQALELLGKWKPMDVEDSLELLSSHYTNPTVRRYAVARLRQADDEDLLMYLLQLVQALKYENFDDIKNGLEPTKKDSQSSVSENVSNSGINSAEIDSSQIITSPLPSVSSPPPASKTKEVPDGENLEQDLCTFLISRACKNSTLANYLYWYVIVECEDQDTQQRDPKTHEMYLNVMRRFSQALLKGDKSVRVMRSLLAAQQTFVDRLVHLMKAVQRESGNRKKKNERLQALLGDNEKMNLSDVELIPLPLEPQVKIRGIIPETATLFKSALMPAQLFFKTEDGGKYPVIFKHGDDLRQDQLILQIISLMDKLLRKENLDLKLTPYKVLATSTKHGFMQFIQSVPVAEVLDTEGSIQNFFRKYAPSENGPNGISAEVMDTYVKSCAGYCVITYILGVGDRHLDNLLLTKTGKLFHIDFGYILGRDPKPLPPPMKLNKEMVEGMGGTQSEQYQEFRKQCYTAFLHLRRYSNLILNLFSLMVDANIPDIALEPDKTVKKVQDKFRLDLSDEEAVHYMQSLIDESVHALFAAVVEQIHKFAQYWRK

[6] = in combination with Afatinib (Compound Y)
[7] = in combination with Afatinib, call from Combination Index
[8] = in combination with Erlotinib (Compound Y)
[9] = in combination with Erlotinib, call from Combination Index
[10] = in combination with Erlotinib, call from Nonlinear Blending Synergy
[11] = in combination with AZD9291 (Compound Y)
[12] = in combination with AZD9291, call from Combination Index
[13] = in combination with CO-1686 (Compound Y)
[14] = in combination with CO-1686, call from Combination Index

Row | SMILES | Combination Index [1, 6] | Meaning [1, 7] | Combination Index [1, 8] | Meaning [1, 9] | Combination Index [2, 6] | Blending Synergy [2] | Combination Index [4, 6] | Meaning [4, 7] | IC50 [5] [nM] | Combination Index [3, 6] | Combination Index [1, 11] | Meaning [1, 12] | Combination Index [1, 13] | Meaning [1, 14] | Combination Index [2, 11] | Combination Index [2, 13] | Combination Index [3, 11] | Combination Index [3, 13] | Combination Index [4, 13] | Meaning [4, 14] | further results
1 | CC(=O)Nc1cc(-c2cnc(Cl)c(NS(=O)(=O)c3ccc(F)cc3F)c2C)ccn1 [Compound I-153, N-(6-chloro-5-{[(2,4-diflourophenyl)sulfonyl]amino}-4-methyl-3,4′-bipyridin-2′-yl)acetamide] | 1.17 | Additivity (A mean Combination Index in the range (0.7-1.3) is classified as Additivity) | 0.97 | Additivity (A mean Combination Index in the range (0.7-1.3) is classified as Additivity) | 0.64 | 23.76 | 0.23 | Synergy (A mean in the range (0-0.7) is classified as Synergy) | < 10 | – | – | – | – | – | – | – | – | – | – | – | Blending Synergy [3, 6]: 8.72; Blending Synergy [4, 8]: 16.3; Meaning [4, 10]: Additivity
2 | Cc1ncc(-c2ccnc(Nc3ccncn3)c2)cc1NS(=O)(=O)N(C)C [Compound I-217, N,N-dimethyl-N′-[6-methyl-2′-(pyrimidin-4-ylamino)-3,4′-bipyridin-5-yl]sulfuric diamide] | 0.97 | Additivity (A mean Combination Index in the range (0.7-1.3) is classified as Additivity) | 0.87 | Additivity (A mean Combination Index in the range (0.7-1.3) is classified as Additivity) | 0.31 | 28.65 | 0.36 | Synergy (A mean in the range (0-0.7) is classified as Synergy) | < 10 | 0.52 | – | – | – | – | – | – | – | – | – | – | Combination Index [4, 8]: 0.46; Meaning [4, 9]: Synergy (A mean in the range (0-0.7) is classified as Synergy)
3 | Cc1nccc(Nc2cc(-c3cnc(Cl)c(NS(=O)(=O)c4ccc(F)cc4F)c3C)ccn2)n1 [Compound I-299, N-{6-chloro-4-methyl-2′-[(2-methylpyrimidin-4-yl)amino]-3,4′-bipyridin-5-yl}-2,4-difluorobenzenesulfonamide] | 1.37 | Subadditivity (A mean in the range (1.3-2) is classified as Subadditivity) | 1.18 | Additivity (A mean Combination Index in the range (0.7-1.3) is classified as Additivity) | 0.47 | 26.93 | 1.01 | Additivity (A mean Combination Index in the range (0.7-1.3) is classified as Additivity) | 10 to 50 | 0.68 | 1.17 | Additivity (A mean Combination Index in the range (0.7-1.3) is classified as Additivity) | 1.00 | Additivity (A mean Combination Index in the range (0.7-1.3) is classified as Additivity) | 0.87 | 0.43 | 0.54 | 0.72 | 1.02 | Additivity (A mean Combination Index in the range (0.7-1.3) is classified as Additivity) | Combination Index [4, 11]: 1.00; Meaning [4, 12]: Additivity (A mean Combination Index in the range (0.7-1.3) is classified as Additivity); Combination Index [4, 8]: 1.01; Meaning [4, 9]: Additivity (A mean Combination Index in the range (0.7-1.3) is classified as Additivity)
4 | Cc1nccc(Nc2cc(-c3cnc(C)c(C(=O)N4CCC4)c3)ccn2)n1 [Compound I-304, Azetidin-1-yl(6-methyl-2′-((2-methylpyrimidin-4-yl)amino)-3,4′-bipyridin-5-yl)methanone] | – | – | – | – | – | – | – | – | 10 to 50 | – | 0.98 | Additivity (A mean Combination Index in the range (0.7-1.3) is classified as Additivity) | 0.90 | Additivity (A mean Combination Index in the range (0.7-1.3) is classified as Additivity) | 0.80 | 0.47 | 1.00 | 0.77 | 0.99 | Additivity (A mean Combination Index in the range (0.7-1.3) is classified as Additivity) | Combination Index [4, 11]: 0.78; Meaning [4, 12]: Additivity (A mean Combination Index in the range (0.7-1.3) is classified as Additivity)
5 | Cc1c(-c2ccnc(NC(=O)C3CC3)c2)cnc(Cl)c1NS(=O)(=O)c1ccc(F)cc1F [Compound I-308, N-(6-chloro-5-{[(2,4-difluorophenyl)sulfonyl]amino}-4-methyl-3,4′-bipyridin-2′-yl)cyclopropanecarboxamide] | 1.49 | Subadditivity (A mean in the range (1.3-2) is classified as Subadditivity) | 1.36 | Subadditivity (A mean in the range (1.3-2) is classified as Subadditivity) | 0.55 | 27.0 | – | – | < 10 | 0.84 | 1.33 | Subadditivity (A mean in the range (1.3-2) is classified as Subadditivity) | 1.19 | Additivity (A mean Combination Index in the range (0.7-1.3) is classified as Additivity) | 0.53 | 0.36 | 0.72 | 0.60 | 0.88 | Additivity (A mean Combination Index in the range (0.7-1.3) is classified as Additivity) | Blending Synergy [4, 11]: 10.2; Meaning ([4]; in combination with AZD9291, call from Nonlinear Blending Synergy): Additivity; Blending Synergy [4, 6]: 11.2; Meaning ([4]; in combination with Afatinib, call from Nonlinear Blending Synergy): Additivity; Blending Synergy [4, 8]: 15.2; Meaning [4, 10]: Additivity
